Results on two molecules are retold here after patent US11219221B2 (FarmHannong Co., Ltd., priority 2017, dated 2022).

pIC50: −log10 of the molar value.

Holding throughout (assay type): biochemical
The target of assay [1] is Spirulina subsalsa PPO CyPPO16 (SEQ ID NO: 1) variant A162L (MBP fusion). Briefly: PPO enzyme inhibition (IC50), MBP-fused PPO. Particulars: 50 μM protoporphyrinogen IX, pH 8.0, room temperature, 30 min. The method, then: (§1) Thus, PPO proteins of wild type and variants were expressed as fused to MBP and were used for experiments.
(§2) The following process for purification of PPO protein was performed in a 4° C. cold room. Amylose resin (NEB) was packed to 1.5×15 cm column (Bio-Rad, Econo Columns 1.5×15 cm, glass chromatography column, max. vol), and the obtained protein extracts were loaded to the column at a flow rate of 0.2 ml/min. The column was washed with 3 column volumes of buffer and the presence of protein in the washing solution was examined. When the protein was no longer detected, the washing procedure was terminated. Then, the MBP-PPO protein was eluted with approximately 2 column volumes of buffer containing 20 mM maltose. The protein concentration of each eluent was determined and the elution was stopped when the protein was no longer detected. Ten microliter of each fraction was investigated for protein quantification and SDS-PAGE analysis. The highly pure fractions of PPO protein variants were used for the enzyme assay.
(§3) Since protoporphyrinogen IX, a substrate of PPO protein, was not commercially available, it was chemically synthesized in the laboratory. Overall process was performed in dark under nitrogen stream. […] of protoporphyrin IX was dissolved in 20 ml of 20% (v/v) EtOH, and stirred under dark condition for 30 minutes. The obtained protoporphyrin IX solution was put into a 15 ml screw tube in an amount of 800 μl, and flushed with nitrogen gas for 5 minutes. To this, 1.5 g of sodium amalgam was added and vigorously shaken for 2 minutes. The lid was opened to exhaust hydrogen gas in the tube. Thereafter, the lid was closed and incubated for 3 minutes. The protoporphyrinogen IX solution was filtered using syringe and cellulose membrane filter. […] To determine the enzyme activity of PPO protein, a reaction mixture was prepared with the following composition (based on 10 ml): 50 mM Tris-Cl (pH 8.0); 50 mM NaCl; 0.04% (v/v) Tween 20; 40 mM glucose (0.072 g); 5 units glucose oxidase (16.6 mg); and 10 units catalase (1 μl).
(§4) Hundred and eighty microliters of a reaction mixture containing the purified PPO protein were placed in 96 well plates and 20 μl of […] were added. […] The reaction proceeded at room temperature for 30 min and the fluorescence of protoporphyrin IX was measured using Microplate reader (Sense, Hidex) (excitation: 405 nm; emission: 633 nm). […] To this, 2.7 N HCl was added, and the absorbance at 408 nm was measured. A standard curve was generated using standard protoporphyrin IX, and PPO activity was measured by calibration of protoporphyrin IX using the standard curve of protoporphyrin IX.

Assay [2] has as its target Spirulina subsalsa PPO CyPPO16 (SEQ ID NO: 1) variant L327T (MBP fusion). In words: PPO enzyme inhibition (IC50), MBP-fused PPO. Particulars: 50 μM protoporphyrinogen IX, pH 8.0, room temperature, 30 min. The method, then:
as §1, §2, §3, §4

The target of assay [3] is Spirulina subsalsa PPO CyPPO16 (SEQ ID NO: 1) variant R85A (MBP fusion). In words: PPO enzyme inhibition (IC50), MBP-fused PPO. Particulars: 50 μM protoporphyrinogen IX, pH 8.0, room temperature, 30 min. The method, then: as §1, §2, §3, §4
The target in assay [4] is Spirulina subsalsa PPO CyPPO16 (SEQ ID NO: 1) variant V160C (MBP fusion). In words: PPO enzyme inhibition (IC50), MBP-fused PPO. Particulars: 50 μM protoporphyrinogen IX, pH 8.0, room temperature, 30 min. As for the experimental part:
as §1, §2, §3, §4

Assay [5] has as its target Spirulina subsalsa PPO CyPPO16 (SEQ ID NO: 1) variant V305M (MBP fusion). In words: PPO enzyme inhibition (IC50), MBP-fused PPO. Particulars: 50 μM protoporphyrinogen IX, pH 8.0, room temperature, 30 min. The method, then: as §1, §2, §3, §4
Assay [6] deals with Spirulina subsalsa PPO CyPPO16, wild type, SEQ ID NO: 1 (MBP fusion). In words: PPO enzyme inhibition (IC50), MBP-fused PPO. Particulars: 50 μM protoporphyrinogen IX, pH 8.0, room temperature, 30 min. The method, then:
as §1, §2, §3, §4

For assay [7], the system named is Spirulina subsalsa PPO CyPPO16, wild type, SEQ ID NO: 1. In words: PPO enzyme kinetics (Vmax). Particulars: substrate protoporphyrinogen IX. The method, then:
as §1
as §3, with “Overall” for “Since protoporphyrinogen IX, a substrate of PPO protein, was not commercially available, it was chemically synthesized in the laboratory. Overall”, “minutes.” for “minutes. The protoporphyrinogen IX solution was filtered using syringe and cellulose membrane filter.”
as §4
(§5) Meanwhile, the maximal velocity (Vmax) values of each enzyme were determined in order to evaluate the kinetic characteristics of CyPPO16 and CyPPO17. The initial reaction velocity was measured where the reaction velocity was proportional to concentration by varying the substrate concentration. The amount of produced protoporphyrin IX, the enzyme reaction product, was measured by time course at room temperature for 20 minutes. Vmax values were calculated with the enzyme kinetics analysis program by Michaelis-Menten equation.

Assay [8] relates to Thermosynechococcus sp. NK55a PPO CyPPO17, wild type, SEQ ID NO: 3. Briefly: PPO enzyme kinetics (Vmax). Particulars: substrate protoporphyrinogen IX. As for the experimental part: as §1
as §3, with “Overall” for “Since protoporphyrinogen IX, a substrate of PPO protein, was not commercially available, it was chemically synthesized in the laboratory. Overall”, “minutes.” for “minutes. The protoporphyrinogen IX solution was filtered using syringe and cellulose membrane filter.”
as §4, §5

Where [9] appears, read: room temperature, 20 min time course, Michaelis-Menten.

Broadly, the pIC50 is the negative decadic logarithm of the IC50, by convention in mol/L. On to `C#CCN1C(=O)COc2cc(F)c(N3C(=O)C4=C(CCCC4)C3=O)cc21` [flumioxazin], for which the negative logarithm of the IC50 (pIC50) in assay [1] was 6.24; in assay [2], 6.11; in assay [3], 7.23; in assay [4], 7.24; in assay [5], 7.42; in assay [6], 7.85.

`C=Cc1c2[nH]c(c1C)Cc1[nH]c(c(CCC(=O)O)c1C)Cc1[nH]c(c(C)c1CCC(=O)O)Cc1[nH]c(c(C)c1C=C)C2` [protoporphyrinogen IX]: the “Vmax compared with AtPPO1” value in assay [7] and in assay [8] was “more than two times higher” each time. Also, the figures for the Vmax in assay [7] (setting [9]) and in assay [8] (setting [9]) were 336 nmole mg protein^−1 min^−1 and 378 nmole mg protein^−1 min^−1, respectively.
